From US20240109900A1, “AZABICYCLIC SHP2 INHIBITORS” (IRBM S.P.A., priority 2021, published 2024) come the findings set out here.

Where two headings read alike, the source gives them in different places.

The target of test [1] is SHP-2 enzyme (Met1-Leu525) (Homo sapiens (Human), UniProt Q06124). In words: SHP2 inhibition enzymatic assay. The class given is biochemical. In a few lines: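 Compounds were preincubated 30 min with 0.5 nM SHP-2 (Met1-Leu525) plus 500 nM IRS1 activating peptide (pH 7.2 HEPES, 5 mM DTT), then 75 μM DiFMUP substrate reacted 30 min at room temperature. After bpV quench, DiFMUP fluorescence gave % inhibition; four-parameter logistic fit yielded IC50.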
Sequence of SHP-2 enzyme (Met1-Leu525) (Q06124 1-525): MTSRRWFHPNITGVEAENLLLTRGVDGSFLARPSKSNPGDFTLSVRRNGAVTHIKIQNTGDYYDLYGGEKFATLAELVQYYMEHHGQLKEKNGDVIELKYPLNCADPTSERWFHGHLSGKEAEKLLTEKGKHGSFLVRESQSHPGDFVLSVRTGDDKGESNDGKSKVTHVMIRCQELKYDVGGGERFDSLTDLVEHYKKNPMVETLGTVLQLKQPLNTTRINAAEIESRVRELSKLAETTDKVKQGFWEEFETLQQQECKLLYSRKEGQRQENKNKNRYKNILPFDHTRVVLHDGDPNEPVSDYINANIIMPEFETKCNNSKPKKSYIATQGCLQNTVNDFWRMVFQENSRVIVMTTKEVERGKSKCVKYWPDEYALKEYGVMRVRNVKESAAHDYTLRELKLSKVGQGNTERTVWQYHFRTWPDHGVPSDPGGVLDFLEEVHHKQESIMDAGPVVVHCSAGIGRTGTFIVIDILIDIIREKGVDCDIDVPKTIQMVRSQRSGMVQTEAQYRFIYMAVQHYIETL

The test system of test [2] is ERK phosphorylation in KYSE-520 cells. In words: Phospho-ERK cellular assay. The class given is cell-based. The settings on record: read-out: PERK IC50. Put shortly:
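TR-FRET read-out of ERK1/2 Thr202/Tyr204 phosphorylation was taken after overnight antibody incubation at room temperature. Before that, KYSE-520 cells were treated 2 h at 37 °C with compound dilutions and lysed 30 min. Percent inhibition relative to vehicle and cell-free wells was fitted four-parametrically to give IC50.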

Where [3] appears, read: 0.5 nM SHP-2 activated by 500 nM IRS1 peptide, 75 μM DiFMUP substrate, read-out: SHP2wt-IC50.
Where [4] appears, read: Homo sapiens, KYSE-520, 2 h, KYSE-520 cells, 2 h at 37° C., phospho-ERK1/2 (Thr202/Tyr204) TR-FRET.
Where [5] appears, read: KYSE-520 cells, 2 h at 37° C., phospho-ERK1/2 (Thr202/Tyr204) TR-FRET.

For `CS(=O)(=O)NC(=O)c1ccc(-c2n[nH]c3nc(N4CC[C@@H]5[C@H](C4)[C@@]5(CN)c4ccccc4F)cnc23)c2cccnc12` [Example 282, 5-(6-((1S,6R,7R)-7-(aminomethyl)-7-(2-fluorophenyl)-3-azabicyclo[4.1.0]heptan-3-yl)-1H-pyrazolo[3,4-b]pyrazin-3-yl)-N-(methylsulfonyl)quinoline-8-carboxamide], the IC50 was under 500 nM in test [1] (setting [3]) and under 1000 nM in test [2] (setting [4]).

Regarding `COc1ccc(-c2n[nH]c3nc(N4CC[C@@H]5[C@H](C4)[C@@]5(CN)c4ccccc4F)cnc23)c2cccnc12` [Example 146, ((1S,6R,7R)-7-(2-fluorophenyl)-3-(3-(8-methoxyquinolin-5-yl)-1H-pyrazolo[3,4-b]pyrazin-6-yl)-3-azabicyclo[4.1.0]heptan-7-yl)methanamine], the IC50 in test [1] (setting [3]) was under 500 nM; in test [2] (setting [4]), under 1000 nM.

Take `Cc1csc([C@@]2(CN)[C@@H]3CCN(c4cnc5c(-c6ccn7nccc7c6Cl)n[nH]c5n4)C[C@@H]32)n1` [Example 439, ((1S,6R,7S)-3-(3-(4-chloropyrazolo[1,5-a]pyridin-5-yl)-1H-pyrazolo[3,4-b]pyrazin-6-yl)-7-(4-methylthiazol-2-yl)-3-azabicyclo[4.1.0]heptan-7-yl)methanamine]: the IC50 is under 500 nM in test [1] (setting [3]) and under 1000 nM in test [2] (setting [4]).

In the case of `NCC1(c2ccccc2)C2CCN(c3cnc4c(-c5cccc(Cl)c5Cl)n[nH]c4n3)CC21` (stereo not shown) [Example 80, (3-(3-(2,3-dichlorophenyl)-1H-pyrazolo[3,4-b]pyrazin-6-yl)-7-phenyl-3-azabicyclo[4.1.0]heptan-7-yl)methanamine], the figures for the IC50 in test [1] (setting [3]) and in test [2] (setting [4]) were under 500 nM and under 1000 nM, respectively.

Regarding `Cc1nccc(Sc2ccc3nc(N4CC[C@@H]5[C@H](C4)[C@@]5(CN)c4cc(F)ccc4F)cnc3n2)c1F` [Example 426, ((1S,6R,7R)-7-(2,5-difluorophenyl)-3-(6-((3-fluoro-2-methylpyridin-4-yl)thio)pyrido[2,3-b]pyrazin-2-yl)-3-azabicyclo[4.1.0]heptan-7-yl)methanamine], the values for the IC50 in test [1] (setting [3]) and in test [2] (setting [4]) were under 500 nM and under 1000 nM, respectively.

Take `NC[C@]1(c2ccccc2F)[C@@H]2CCN(c3cnc4c(-c5ccc6c(c5Cl)NCCO6)n[nH]c4n3)C[C@@H]21` [Example 311]: the IC50 was under 500 nM in test [1] (setting [3]) and under 1000 nM in test [2] (setting [5]).

As for `Cc1cc(C2(CN)C3CCN(c4cnc5c(-c6cccc7ncccc67)n[nH]c5n4)CC32)no1` (stereo not shown) [Example 9, (7-(5-methylisoxazol-3-yl)-3-(3-(quinolin-5-yl)-1H-pyrazolo[3,4-b]pyrazin-6-yl)-3-azabicyclo[4.1.0]heptan-7-yl)methanamine], the IC50 in test [1] (setting [3]) is under 500 nM; in test [2] (setting [4]) it was under 1000 nM.

In the case of `NC[C@]1(c2ccccc2F)[C@@H]2CCN(c3cnc4c(-c5cccn6nccc56)n[nH]c4n3)C[C@@H]21` [Example 131, ((1S,6R,7R)-7-(2-fluorophenyl)-3-(3-(pyrazolo[1,5-a]pyridin-4-yl)-1H-pyrazolo[3,4-b]pyrazin-6-yl)-3-azabicyclo[4.1.0]heptan-7-yl)methanamine], the IC50 is under 500 nM in test [1] (setting [3]) and under 1000 nM in test [2] (setting [4]).

For `Cc1csc([C@@]2(CN)[C@@H]3CN(c4nc5[nH]nc(-c6ccc7nc(C)sc7c6Cl)c5c(=O)n4C)C[C@@H]32)n1` [Example 469, 6-((1R,5S,6r)-6-(aminomethyl)-6-(4-methylthiazol-2-yl)-3-azabicyclo[3.1.0]hexan-3-yl)-3-(7-chloro-2-methylbenzo[d]thiazol-6-yl)-5-methyl-1,5-dihydro-4H-pyrazolo[3,4-d]pyrimidin-4-one], the IC50 was under 500 nM in test [1] (setting [3]) and under 1000 nM in test [2] (setting [4]).

`Cn1ccc2c(-c3n[nH]c4nc(N5CC[C@@H]6[C@H](C5)[C@@]6(CN)c5ccccc5F)cnc34)ccc(F)c2c1=O` [Example 315, 5-(6-((1S,6R,7R)-7-(aminomethyl)-7-(2-fluorophenyl)-3-azabicyclo[4.1.0]heptan-3-yl)-1H-pyrazolo[3,4-b]pyrazin-3-yl)-8-fluoro-2-methylisoquinolin-1(2H)-one]: the figures for the IC50 in test [1] (setting [3]) and in test [2] (setting [4]) were under 500 nM and under 1000 nM, respectively.

`NC[C@]1(c2ccccc2F)[C@@H]2CCN(c3cnc4c(-c5ccc6c(c5Cl)NC(=O)CO6)n[nH]c4n3)C[C@@H]21` [Example 207, 6-(6-((1S,6R,7R)-7-(aminomethyl)-7-(2-fluorophenyl)-3-azabicyclo[4.1.0]heptan-3-yl)-1H-pyrazolo[3,4-b]pyrazin-3-yl)-5-chloro-2H-benzo[b][1,4]oxazin-3(4H)-one]: the half-inhibitory concentration (IC50) in test [1] (setting [3]) is under 500 nM; in test [2] (setting [4]), under 1000 nM.

Regarding `NC[C@]1(c2ccccc2F)[C@@H]2CCN(c3cnc4c(-c5ccc6n[nH]cc6c5Cl)n[nH]c4n3)C[C@@H]21` [Example 243, ((1S,6R,7R)-3-(3-(4-chloro-2H-indazol-5-yl)-1H-pyrazolo[3,4-b]pyrazin-6-yl)-7-(2-fluorophenyl)-3-azabicyclo[4.1.0]heptan-7-yl)methanamine], the IC50 was under 500 nM in test [1] (setting [3]) and under 1000 nM in test [2] (setting [4]).

Take `Cc1csc([C@@]2(CN)[C@@H]3CCN(c4cnc5c(-c6ccc(OS(=O)(=O)F)c7ncccc67)n[nH]c5n4)C[C@@H]32)n1` [Example 448, 5-(6-((1S,6R,7S)-7-(aminomethyl)-7-(4-methylthiazol-2-yl)-3-azabicyclo[4.1.0]heptan-3-yl)-1H-pyrazolo[3,4-b]pyrazin-3-yl)quinolin-8-yl sulfurofluoridate]: the IC50 was under 500 nM in test [1] (SHP2wt-IC50, 0.5 nM SHP-2 activated by 500 nM IRS1 peptide, 75 μM DiFMUP substrate) and under 1000 nM in test [2] (Homo sapiens, KYSE-520, 2 h).

On to `NCC1(c2ccccc2)C2CCN(c3nc4nc(Sc5cccnc5C(F)(F)F)cnc4[nH]3)CC21` (stereo not shown) [Example 63, (7-phenyl-3-(5-((2-(trifluoromethyl)pyridin-3-yl)thio)-1H-imidazo[4,5-b]pyrazin-2-yl)-3-azabicyclo[4.1.0]heptan-7-yl)methanamine], for which the IC50 was under 500 nM in test [1] (read-out: SHP2wt-IC50) and 1000 to 5000 nM in test [2] (Homo sapiens, KYSE-520 cells, 2 h at 37° C., phospho-ERK1/2 (Thr202/Tyr204) TR-FRET).

For `NC[C@]1(c2ccccc2F)[C@@H]2CCN(c3cnc4c(-c5ccc6cn[nH]c(=O)c6c5)n[nH]c4n3)C[C@@H]21` [Example 254, 7-(6-((1S,6R,7R)-7-(aminomethyl)-7-(2-fluorophenyl)-3-azabicyclo[4.1.0]heptan-3-yl)-1H-pyrazolo[3,4-b]pyrazin-3-yl)phthalazin-1(2H)-one], the IC50 in test [1] (setting [3]) was under 500 nM; in test [2] (setting [4]) it was under 1000 nM.

Consider `NC[C@]1(c2ccccc2F)[C@@H]2CCN(c3cnc4c(-c5ccc6c(cnn6C6CC6)c5Cl)n[nH]c4n3)C[C@@H]21` [Example 413], for which the IC50 in test [1] (setting [3]) is under 500 nM; in test [2] (setting [5]) it was under 1000 nM.

For `COc1cccc2c(-c3n[nH]c4nc(N5CC[C@@H]6[C@H](C5)[C@@]6(CN)c5ccccc5F)cnc34)ccnc12` [Example 166, ((1S,6R,7R)-7-(2-fluorophenyl)-3-(3-(8-methoxyquinolin-4-yl)-1H-pyrazolo[3,4-b]pyrazin-6-yl)-3-azabicyclo[4.1.0]heptan-7-yl)methanamine], the values for the IC50 in test [1] (setting [3]) and in test [2] (setting [4]) were under 500 nM and under 1000 nM, respectively.

Regarding `Cn1ccc(Oc2ccc(-c3n[nH]c4nc(N5CC[C@@H]6[C@H](C5)[C@@]6(CN)c5ccccc5F)cnc34)c(Cl)c2Cl)n1` [Example 215, ((1S,6R,7R)-3-(3-(2,3-dichloro-4-((1-methyl-1H-pyrazol-3-yl)oxy)phenyl)-1H-pyrazolo[3,4-b]pyrazin-6-yl)-7-(2-fluorophenyl)-3-azabicyclo[4.1.0]heptan-7-yl)methanamine], the IC50 was under 500 nM in test [1] (setting [3]) and under 1000 nM in test [2] (setting [4]).

Turning to `Cc1csc(C2(CN)C3CCN(c4nc5[nH]nc(-c6cccc7ncccc67)c5nc4CO)CC32)n1` (stereo not shown) [Example 101, (6-(7-(aminomethyl)-7-(4-methylthiazol-2-yl)-3-azabicyclo[4.1.0]heptan-3-yl)-3-(quinolin-5-yl)-1H-pyrazolo[3,4-b]pyrazin-5-yl)methanol], the values for the IC50 in test [1] (setting [3]) and in test [2] (setting [4]) were under 500 nM and under 1000 nM, respectively.

For the compound `Cc1csc([C@@]2(CN)[C@@H]3CN(c4cnc5c(-c6ccc7nscc7c6Cl)n[nH]c5n4)C[C@@H]32)n1` [Example 463], the IC50 was under 500 nM in test [1] (setting [3]) and under 1000 nM in test [2] (setting [5]).

Consider `Cn1c(=O)ccc2c(-c3n[nH]c4nc(N5CC[C@@H]6[C@H](C5)[C@@]6(CN)c5ccccc5F)cnc34)cccc21` [Example 272, 5-(6-((1S,6R,7R)-7-(aminomethyl)-7-(2-fluorophenyl)-3-azabicyclo[4.1.0]heptan-3-yl)-1H-pyrazolo[3,4-b]pyrazin-3-yl)-1-methylquinolin-2(1H)-one], for which the IC50 in test [1] (setting [3]) was under 500 nM; in test [2] (setting [4]) it was under 1000 nM.

As to `Cc1csc([C@@]2(CN)[C@@H]3CN(c4cnc5c(-c6ccnc7c(F)cccc67)n[nH]c5n4)C[C@@H]32)n1` [Example 459], the IC50 in test [1] (setting [3]) is under 500 nM; in test [2] (setting [5]), under 1000 nM.

In the case of `Cc1cc([C@@]2(CN)[C@@H]3CCN(c4cnc5c(-c6cccc7c6C(F)(F)C(=O)N7C)n[nH]c5n4)C[C@@H]32)no1` [Example 51, 4-(6-((1S,6R,7S)-7-(aminomethyl)-7-(5-methylisoxazol-3-yl)-3-azabicyclo[4.1.0]heptan-3-yl)-1H-pyrazolo[3,4-b]pyrazin-3-yl)-3,3-difluoro-1-methylindolin-2-one], the IC50 was under 500 nM in test [1] (setting [3]) and under 1000 nM in test [2] (setting [4]).
